# Results taken from US8802597B2, “Herbicidal pyrimidines” (E I du Pont de Nemours and Company, priority 2003, dated 2014).
# Like-named read-outs stand apart in the source and are kept apart here.
# Columns and labels:
# Test in all cases: Test A pre/postemergence
# Type in all cases: in vivo
# [1] = system: giant foxtail (Setaria faberi); conditions: for pest or weed control at 125 g/ha / pest or weed control at 500 g/ha: Setaria faberi, 240 h, read-out: Plant response rating, Foxtail, Giant
# How it was run: (§1)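 Seeds in loam–sand blend received preemergence directed soil spray and, concurrently, postemergence application (plants 2–10 cm, 1–2-leaf stage) of compound in non-phytotoxic solvent with surfactant. After about ten days in greenhouse, injury rated visually versus untreated controls, 0 (no effect) to 100 (complete control).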
# [2] = system: velvetleaf (Abutilon theophrasti); conditions: for pest or weed control at 125 g/ha / pest or weed control at 500 g/ha: Abutilon theophrasti, 240 h, read-out: Plant response rating, Velvetleaf
# How it was run: as §1
# [3] = system: crabgrass (Digitaria sanguinalis); conditions: for pest or weed control at 125 g/ha / pest or weed control at 500 g/ha: Digitaria sanguinalis, 240 h, read-out: Plant response rating, Crabgrass
# How it was run: as §1
# [4] = system: barnyardgrass (Echinochloa crus-galli); conditions: for pest or weed control at 125 g/ha / pest or weed control at 500 g/ha: Echinochloa crus-galli, 240 h, read-out: Plant response rating, Barnyardgrass
# How it was run: as §1
# [5] = system: morningglory (Ipomoea spp.); conditions: for pest or weed control at 125 g/ha / pest or weed control at 500 g/ha: Ipomoea, 240 h, read-out: Plant response rating, Morningglory
# How it was run: as §1
# [6] = system: redroot pigweed (Amaranthus retroflexus); conditions: for pest or weed control at 125 g/ha / pest or weed control at 500 g/ha: Amaranthus retroflexus, 240 h, read-out: Plant response rating, Pigweed
# How it was run: as §1
# [7] = post-emergence, Postemergence, 125 g ai/ha, 0 to 100 scale (0 no effect, 100 complete control)
# [8] = post-emergence, Postemergence, 500 g ai/ha, 0 to 100 scale (0 no effect, 100 complete control)
# [9] = pre-emergence, Preemergence, 125 g ai/ha, 0 to 100 scale where 0 is no effect and 100 is complete control, approximately ten days
# [10] = pre-emergence, Preemergence, 500 g ai/ha, 0 to 100 scale where 0 is no effect and 100 is complete control, approximately ten days
# [11] = Postemergence, 500 g ai/ha, 0 to 100 scale (0 no effect, 100 complete control)
# [12] = Postemergence, 2000 g ai/ha, 0 to 100 scale (0 no effect, 100 complete control)
# [13] = Preemergence, 500 g ai/ha, 0 to 100 scale where 0 is no effect and 100 is complete control, approximately ten days
# [14] = Preemergence, 2000 g ai/ha, 0 to 100 scale (0 no effect, 100 complete control)
# [15] = Postemergence, 125 g ai/ha, 0 to 100 scale (0 no effect, 100 complete control)
# [16] = Preemergence, 125 g ai/ha, 0 to 100 scale where 0 is no effect and 100 is complete control, approximately ten days
smiles,measurement,setting,value
CNC(=O)c1nc(C2CC2)nc(N)c1Cl [Compound 81],pest or weed control at 125 g/ha,[1]; [7],0%
same,pest or weed control at 500 g/ha,[1]; [8],30%
same,pest or weed control at 125 g/ha,[1]; [9],0%
same,pest or weed control at 500 g/ha,[1]; [10],10%
same,pest or weed control at 125 g/ha,[2]; [7],50%
same,pest or weed control at 500 g/ha,[2]; [8],75%
same,pest or weed control at 125 g/ha,[2]; [9],20%
same,pest or weed control at 500 g/ha,[2]; [10],40%
same,pest or weed control at 125 g/ha,[3]; [7],0%
same,pest or weed control at 500 g/ha,[3]; [8],10%
same,pest or weed control at 125 g/ha,[3]; [9],0%
same,pest or weed control at 500 g/ha,[3]; [10],10%
same,pest or weed control at 125 g/ha,[4]; [7],0%
same,pest or weed control at 500 g/ha,[4]; [8],30%
same,pest or weed control at 125 g/ha,[4]; [9],10%
same,pest or weed control at 500 g/ha,[4]; [10],20%
same,pest or weed control at 125 g/ha,[5]; [7],50%
same,pest or weed control at 500 g/ha,[5]; [8],80%
same,pest or weed control at 125 g/ha,[5]; [9],0%
same,pest or weed control at 500 g/ha,[5]; [10],50%
same,pest or weed control at 125 g/ha,[6]; [7],55%
same,pest or weed control at 500 g/ha,[6]; [8],75%
same,pest or weed control at 125 g/ha,[6]; [9],60%
same,pest or weed control at 500 g/ha,[6]; [10],70%
CCOC(=O)C(O)c1nc(C2CC2)nc(N)c1Br (stereo not drawn) [Compound 57],"Plant response rating, Foxtail, Giant",[1]; [11],60
same,"Plant response rating, Foxtail, Giant",[1]; [12],80
same,"Plant response rating, Foxtail, Giant",[1]; [13],10
same,"Plant response rating, Foxtail, Giant",[1]; [14],70
same,"Plant response rating, Velvetleaf",[2]; [11],50
same,"Plant response rating, Velvetleaf",[2]; [12],80
same,"Plant response rating, Velvetleaf",[2]; [13],80
same,"Plant response rating, Velvetleaf",[2]; [14],95
same,"Plant response rating, Crabgrass",[3]; [11],10
same,"Plant response rating, Crabgrass",[3]; [12],30
same,"Plant response rating, Crabgrass",[3]; [13],10
same,"Plant response rating, Crabgrass",[3]; [14],70
same,"Plant response rating, Barnyardgrass",[4]; [11],25
same,"Plant response rating, Barnyardgrass",[4]; [12],75
same,"Plant response rating, Barnyardgrass",[4]; [13],25
same,"Plant response rating, Barnyardgrass",[4]; [14],80
same,"Plant response rating, Morningglory",[5]; [11],70
same,"Plant response rating, Morningglory",[5]; [12],80
same,"Plant response rating, Morningglory",[5]; [13],100
same,"Plant response rating, Morningglory",[5]; [14],100
same,"Plant response rating, Pigweed",[6]; [11],75
same,"Plant response rating, Pigweed",[6]; [12],95
same,"Plant response rating, Pigweed",[6]; [13],90
same,"Plant response rating, Pigweed",[6]; [14],100
Nc1nc(-c2ccc(F)cc2)nc(C(=O)O)c1Br [Compound 93],"Plant response rating, Foxtail, Giant",[1]; [15],0
same,"Plant response rating, Foxtail, Giant",[1]; [11],0
same,"Plant response rating, Foxtail, Giant",[1]; [16],5
same,"Plant response rating, Foxtail, Giant",[1]; [13],35
same,"Plant response rating, Velvetleaf",[2]; [15],65
same,"Plant response rating, Velvetleaf",[2]; [11],80
same,"Plant response rating, Velvetleaf",[2]; [16],55
same,"Plant response rating, Velvetleaf",[2]; [13],85
same,"Plant response rating, Crabgrass",[3]; [15],0
same,"Plant response rating, Crabgrass",[3]; [11],0
same,"Plant response rating, Crabgrass",[3]; [16],25
same,"Plant response rating, Crabgrass",[3]; [13],45
same,"Plant response rating, Barnyardgrass",[4]; [15],0
same,"Plant response rating, Barnyardgrass",[4]; [11],0
same,"Plant response rating, Barnyardgrass",[4]; [16],5
same,"Plant response rating, Barnyardgrass",[4]; [13],30
same,"Plant response rating, Morningglory",[5]; [15],40
same,"Plant response rating, Morningglory",[5]; [11],55
same,"Plant response rating, Morningglory",[5]; [16],0
same,"Plant response rating, Morningglory",[5]; [13],5
same,"Plant response rating, Pigweed",[6]; [15],45
same,"Plant response rating, Pigweed",[6]; [11],70
same,"Plant response rating, Pigweed",[6]; [16],80
same,"Plant response rating, Pigweed",[6]; [13],90
Nc1nc(-c2ccc(F)cc2)nc(C(=O)O)c1Cl [Compound 90],"Plant response rating, Foxtail, Giant",[1]; [15],0
same,"Plant response rating, Foxtail, Giant",[1]; [11],30
same,"Plant response rating, Foxtail, Giant",[1]; [16],0
same,"Plant response rating, Foxtail, Giant",[1]; [13],15
same,"Plant response rating, Velvetleaf",[2]; [15],65
same,"Plant response rating, Velvetleaf",[2]; [11],85
same,"Plant response rating, Velvetleaf",[2]; [16],10
same,"Plant response rating, Velvetleaf",[2]; [13],45
same,"Plant response rating, Crabgrass",[3]; [15],0
same,"Plant response rating, Crabgrass",[3]; [11],20
same,"Plant response rating, Crabgrass",[3]; [16],10
same,"Plant response rating, Crabgrass",[3]; [13],50
same,"Plant response rating, Barnyardgrass",[4]; [15],0
same,"Plant response rating, Barnyardgrass",[4]; [11],10
same,"Plant response rating, Barnyardgrass",[4]; [16],0
same,"Plant response rating, Barnyardgrass",[4]; [13],35
same,"Plant response rating, Morningglory",[5]; [15],20
same,"Plant response rating, Morningglory",[5]; [11],65
same,"Plant response rating, Morningglory",[5]; [16],0
same,"Plant response rating, Morningglory",[5]; [13],25
same,"Plant response rating, Pigweed",[6]; [15],35
same,"Plant response rating, Pigweed",[6]; [11],90
same,"Plant response rating, Pigweed",[6]; [16],70
same,"Plant response rating, Pigweed",[6]; [13],80
CCCCOCCOC(=O)c1nc(C2CC2)nc(N)c1Cl [Compound 139],"Plant response rating, Foxtail, Giant",[1]; [15],80
same,"Plant response rating, Foxtail, Giant",[1]; [11],80
same,"Plant response rating, Foxtail, Giant",[1]; [16],80
same,"Plant response rating, Foxtail, Giant",[1]; [13],90
same,"Plant response rating, Velvetleaf",[2]; [15],85
same,"Plant response rating, Velvetleaf",[2]; [11],90
same,"Plant response rating, Velvetleaf",[2]; [16],90
same,"Plant response rating, Velvetleaf",[2]; [13],90
same,"Plant response rating, Crabgrass",[3]; [15],60
same,"Plant response rating, Crabgrass",[3]; [11],70
same,"Plant response rating, Crabgrass",[3]; [16],75
same,"Plant response rating, Crabgrass",[3]; [13],90
same,"Plant response rating, Barnyardgrass",[4]; [15],80
same,"Plant response rating, Barnyardgrass",[4]; [11],90
same,"Plant response rating, Barnyardgrass",[4]; [16],75
same,"Plant response rating, Barnyardgrass",[4]; [13],90
same,"Plant response rating, Morningglory",[5]; [15],80
same,"Plant response rating, Morningglory",[5]; [11],90
same,"Plant response rating, Morningglory",[5]; [16],90
same,"Plant response rating, Morningglory",[5]; [13],100
same,"Plant response rating, Pigweed",[6]; [15],90
same,"Plant response rating, Pigweed",[6]; [11],100
same,"Plant response rating, Pigweed",[6]; [16],90
same,"Plant response rating, Pigweed",[6]; [13],100
COC(=O)COC(=O)c1nc(C2CC2)nc(N)c1Cl [Compound 148],"Plant response rating, Foxtail, Giant",[1]; [15],45
same,"Plant response rating, Foxtail, Giant",[1]; [11],80
same,"Plant response rating, Foxtail, Giant",[1]; [16],40
same,"Plant response rating, Foxtail, Giant",[1]; [13],80
same,"Plant response rating, Velvetleaf",[2]; [15],75
same,"Plant response rating, Velvetleaf",[2]; [11],95
same,"Plant response rating, Velvetleaf",[2]; [16],80
same,"Plant response rating, Velvetleaf",[2]; [13],100
same,"Plant response rating, Crabgrass",[3]; [15],10
same,"Plant response rating, Crabgrass",[3]; [11],85
same,"Plant response rating, Crabgrass",[3]; [16],45
same,"Plant response rating, Crabgrass",[3]; [13],90
same,"Plant response rating, Barnyardgrass",[4]; [15],68
same,"Plant response rating, Barnyardgrass",[4]; [11],90
same,"Plant response rating, Barnyardgrass",[4]; [16],65
same,"Plant response rating, Barnyardgrass",[4]; [13],85
same,"Plant response rating, Morningglory",[5]; [15],90
same,"Plant response rating, Morningglory",[5]; [11],100
same,"Plant response rating, Morningglory",[5]; [16],90
same,"Plant response rating, Morningglory",[5]; [13],100
same,"Plant response rating, Pigweed",[6]; [15],75
same,"Plant response rating, Pigweed",[6]; [11],95
same,"Plant response rating, Pigweed",[6]; [16],80
same,"Plant response rating, Pigweed",[6]; [13],90
